The numbers were not newly measured in article PMC4492579, “Potent and Selective Triazole-Based Inhibitors of the Hypoxia-Inducible Factor Prolyl-Hydroxylases with Activity in the Murine Brain” (PLoS ONE, 2015), which cites them from elsewhere.

SMILES strings stand for the structures. pIC50: −log10 of the molar value. A value given as a limit tells only on which side of the number the result lay.

What all share (parameters): method as in PMID 26682036
Settings in all cases: cited from earlier work

The target of one series is T1, JMJD1A (KDM3A) (Homo sapiens, UniProt Q9Y4C1).
T1 sequence (Q9Y4C1 1-1321): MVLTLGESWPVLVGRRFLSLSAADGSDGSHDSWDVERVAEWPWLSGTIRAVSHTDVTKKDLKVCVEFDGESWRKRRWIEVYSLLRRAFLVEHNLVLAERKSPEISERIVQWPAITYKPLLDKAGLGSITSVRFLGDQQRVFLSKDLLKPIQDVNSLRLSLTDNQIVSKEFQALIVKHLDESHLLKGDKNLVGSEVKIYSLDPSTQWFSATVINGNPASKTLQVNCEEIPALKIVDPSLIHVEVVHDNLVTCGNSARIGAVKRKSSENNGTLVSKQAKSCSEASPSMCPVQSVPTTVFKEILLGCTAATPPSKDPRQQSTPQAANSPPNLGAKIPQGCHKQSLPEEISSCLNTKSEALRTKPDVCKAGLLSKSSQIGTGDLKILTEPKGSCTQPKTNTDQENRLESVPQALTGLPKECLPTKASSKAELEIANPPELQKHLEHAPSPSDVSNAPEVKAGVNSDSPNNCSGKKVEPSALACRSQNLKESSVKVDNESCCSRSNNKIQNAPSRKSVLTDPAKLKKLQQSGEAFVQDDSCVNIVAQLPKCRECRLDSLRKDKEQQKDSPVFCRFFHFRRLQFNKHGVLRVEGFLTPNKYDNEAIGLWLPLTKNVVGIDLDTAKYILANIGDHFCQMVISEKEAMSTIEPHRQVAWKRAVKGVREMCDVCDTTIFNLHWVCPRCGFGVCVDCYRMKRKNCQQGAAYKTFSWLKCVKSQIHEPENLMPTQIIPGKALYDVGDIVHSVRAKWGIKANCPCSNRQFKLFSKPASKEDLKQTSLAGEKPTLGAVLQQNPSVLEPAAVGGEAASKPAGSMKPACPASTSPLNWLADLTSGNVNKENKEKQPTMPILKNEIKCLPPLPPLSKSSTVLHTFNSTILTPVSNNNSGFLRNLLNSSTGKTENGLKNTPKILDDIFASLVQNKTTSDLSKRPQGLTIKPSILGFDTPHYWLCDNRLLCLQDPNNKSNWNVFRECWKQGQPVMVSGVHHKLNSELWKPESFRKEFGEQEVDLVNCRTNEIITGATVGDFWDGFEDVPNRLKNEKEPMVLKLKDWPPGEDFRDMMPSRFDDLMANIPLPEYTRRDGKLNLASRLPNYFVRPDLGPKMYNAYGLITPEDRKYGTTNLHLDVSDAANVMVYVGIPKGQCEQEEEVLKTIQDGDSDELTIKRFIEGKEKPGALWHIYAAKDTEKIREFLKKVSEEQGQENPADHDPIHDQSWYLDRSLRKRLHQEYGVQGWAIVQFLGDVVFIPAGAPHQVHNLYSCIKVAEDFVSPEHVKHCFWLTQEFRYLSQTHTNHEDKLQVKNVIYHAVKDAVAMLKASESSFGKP

The target in the next series is T2, JMJD2A (KDM4A) (Homo sapiens, UniProt O75164).
T2 sequence (O75164 1-1064): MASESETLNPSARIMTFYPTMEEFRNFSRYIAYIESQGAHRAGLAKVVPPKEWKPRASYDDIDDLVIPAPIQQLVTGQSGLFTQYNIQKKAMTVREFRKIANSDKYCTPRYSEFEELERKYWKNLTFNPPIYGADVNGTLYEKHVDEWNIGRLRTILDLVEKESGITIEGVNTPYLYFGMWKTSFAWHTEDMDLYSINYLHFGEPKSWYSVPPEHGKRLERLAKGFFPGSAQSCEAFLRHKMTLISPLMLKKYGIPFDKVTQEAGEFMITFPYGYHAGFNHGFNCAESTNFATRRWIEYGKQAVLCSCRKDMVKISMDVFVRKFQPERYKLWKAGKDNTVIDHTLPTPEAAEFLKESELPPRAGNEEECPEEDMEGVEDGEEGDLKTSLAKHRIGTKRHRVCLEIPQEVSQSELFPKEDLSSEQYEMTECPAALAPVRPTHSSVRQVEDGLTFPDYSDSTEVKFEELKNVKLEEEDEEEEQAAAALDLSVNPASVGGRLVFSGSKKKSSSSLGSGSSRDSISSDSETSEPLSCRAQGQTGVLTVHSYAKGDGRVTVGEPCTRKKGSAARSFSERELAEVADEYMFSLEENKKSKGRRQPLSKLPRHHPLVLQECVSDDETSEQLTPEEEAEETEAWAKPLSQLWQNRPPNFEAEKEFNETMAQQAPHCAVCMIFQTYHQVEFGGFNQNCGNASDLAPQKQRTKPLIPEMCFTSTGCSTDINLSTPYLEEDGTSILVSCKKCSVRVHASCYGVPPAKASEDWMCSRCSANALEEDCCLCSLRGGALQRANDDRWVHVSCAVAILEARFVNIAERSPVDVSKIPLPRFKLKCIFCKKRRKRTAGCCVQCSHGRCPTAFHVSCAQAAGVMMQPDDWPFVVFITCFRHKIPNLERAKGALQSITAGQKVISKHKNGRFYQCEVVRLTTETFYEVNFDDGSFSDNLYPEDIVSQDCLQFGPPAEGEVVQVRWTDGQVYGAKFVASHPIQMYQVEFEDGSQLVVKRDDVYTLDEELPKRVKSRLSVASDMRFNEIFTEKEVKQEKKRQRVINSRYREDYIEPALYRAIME

The next series has as its target T3, JMJD2E (KDM4E) (Homo sapiens, UniProt B2RXH2).
T3 sequence (B2RXH2 1-506): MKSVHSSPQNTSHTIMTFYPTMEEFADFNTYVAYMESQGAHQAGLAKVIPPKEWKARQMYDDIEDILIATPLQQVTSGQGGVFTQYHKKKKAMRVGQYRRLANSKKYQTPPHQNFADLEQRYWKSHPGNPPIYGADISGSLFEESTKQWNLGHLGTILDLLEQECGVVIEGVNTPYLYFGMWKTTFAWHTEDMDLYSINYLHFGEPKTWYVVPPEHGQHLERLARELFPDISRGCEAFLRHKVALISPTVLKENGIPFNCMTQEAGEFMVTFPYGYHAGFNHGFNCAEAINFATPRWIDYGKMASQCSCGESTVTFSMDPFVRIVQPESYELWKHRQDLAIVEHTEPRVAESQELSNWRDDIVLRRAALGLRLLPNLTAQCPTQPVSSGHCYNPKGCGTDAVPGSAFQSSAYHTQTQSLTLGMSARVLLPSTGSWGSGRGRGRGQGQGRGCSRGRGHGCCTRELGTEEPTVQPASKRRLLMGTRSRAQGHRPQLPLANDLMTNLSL

As a reminder, the pIC50 is the IC50 on a negative log10 scale, so that one unit is a factor of ten. On to `O=C(O)CNC(=O)c1c(O)c2ccccc2n(Cc2ccccc2)c1=O` [IOX2], for which the pIC50 is under 4.00 at JMJD1A (KDM3A), 4.00 at JMJD2A (KDM4A) and under 4.00 on JMJD2E (KDM4E).
